{"source": "paper PMC12471852", "about": "“Design and Synthesis of Marine-Inspired Itampolin A Derivatives to Overcome Chemoresistance in NSCLC via Cholesterol Homeostasis Modulation” (Marine Drugs, 2025)", "key": {"TM7SF2": {"tested_on": "TM7SF2", "assay": "Western blot / immunofluorescence of TM7SF2 protein in PC9/GR cells", "type": "cell-based, human", "settings": "4l-treated vs untreated PC9/GR, immunoblotting", "description": "By comparing PC9/GR treated with the small molecule compound 4l against untreated PC9/GR controls, we identified significant differentially expressed genes (DEGs). […] The results of the GO enrichment analysis further emphasized the significant impact of the small molecule compound 4l on steroid biosynthesis and metabolism in lung cancer cells, with the top five pathways being steroid biosynthesis, steroid metabolism, the metabolism of hydroxylated compounds, steroid biosynthesis, and cholesterol biosynthesis (Figure 4C). […] TM7SF2 has been identified as a critical regulator of cholesterol biosynthesis and steroid metabolism in lung cancer cells, a finding central to overcoming chemoresistance in NSCLC [28]. Thus, we selected TM7SF2 as the target gene for further experiments and investigated the protein expression of TM7SF2 in 4l-treated PC9/GR cells using immunoblotting.\n(§1) Western blot: Proteins extracted with RIPA buffer were quantified (BCA), separated by SDS-PAGE, transferred to PVDF membranes, and probed with antibodies. Signals were detected by ECL."}, "PC9/GR cells [1]": {"tested_on": "PC9/GR cells", "assay": "BODIPY 493/503 lipid droplet staining", "type": "cell-based, human", "description": "To investigate the relationship between intracellular cholesterol levels and gefitinib resistance, we measured cholesterol content in PC9 (gefitinib-sensitive) and PC9/GR (gefitinib-resistant) cells. […] To further elucidate the role of TM7SF2 in mediating the cholesterol-lowering effects of compound 4l in PC9/GR cells, we generated a TM7SF2-overexpressing PC9/GR cell line via plasmid transfection."}, "PC9/GR cells [2]": {"tested_on": "PC9/GR cells", "assay": "MTT anti-proliferation assay, gefitinib-resistant PC9/GR cells", "type": "cell-based, human", "settings": "for MTT, PC9/GR, value relative to control (=100), single replicate: 24 h", "protocol": "(§2) To evaluate the tumor-selective activity of compounds 4l and 4m, dose–response studies were performed on wild-type PC9 and gefitinib-resistant PC9/GR cell lines. […] Subtoxic concentrations of 25, 50, and 75 μM were employed to ensure specificity for drug-resistant phenotypes while preserving normal cell viability. […] To assess long-term proliferative potential, clonogenic survival assays were performed. Cells pretreated with 4l (24 h) were trypsinized to generate single-cell suspensions, plated at 300 cells/well, and cultured for 14 days. […] Cell migration ability was evaluated by the scratch healing assay. […] To evaluate the pro-apoptotic efficacy of 4l, we employed a dual-staining approach using Annexin V-FITC and propidium iodide (PI) for quadrant-specific quantification of programmed cell death. Annexin V binds externalized phosphatidylserine (PS), a hallmark of early apoptosis, while PI permeabilization discriminates late-stage apoptotic or necrotic cells.\nThe human normal lung epithelial cell line BEAS-2B, non-small cell lung carcinoma (NSCLC) cell line PC9, and gefitinib-resistant PC9/GR cell line were purchased from Procell Life Science & Technology Co., Ltd. (Wuhan, China). All cell lines were maintained in RPMI-1640 medium (BI, Beit Haemek, Mateh Asher, Israel) supplemented with 10% fetal bovine serum (FBS, Gibco, Thermo Fisher Scientific, Waltham, MA, USA) and 1% penicillin–streptomycin–amphotericin B sterile solution (Solarbio, Beijing, China). Cells were cultured at 37 °C in a humidified incubator with 5% CO2. For subculturing, cells were harvested using trypsin-EDTA solution upon reaching 70–80% confluence and resuspended at appropriate densities for subsequent experiments.\nMTT: Cells (5 × 10^4/mL) were treated with 4l (25–100 μM, 24–48 h), incubated with MTT (10 μL/well, 4–6 h), and dissolved in DMSO. Absorbance (490 nm) was measured to assess viability."}, "[3]": {"tested_on": "PC9/GR nude mouse xenografts", "assay": "PC9/GR nude mouse xenograft tumor growth", "type": "in vivo, BALB/c nude mice", "description": "For many years, the technique of implanting human tumor cell lines into nude mice models has been widely used to predict the anti-cancer effects of targeted anti-cancer drugs. In the nude mouse tumor implantation experiment, we continuously monitored the changes in the mouse body weight after administration. […] At the end of the experiment, after euthanizing the nude mice using the spinal dislocation method, we isolated the tumor tissues, weighed them, and conducted statistical analysis.\nBALB/c nude mice (n = 12) were subcutaneously injected with PC9/GR cells (1 × 10^7 cells/mouse). When tumors reached 50 mm^3, mice received daily 4l or vehicle (3 weeks). Tumor volume (0.52 × length × width^2) and weight were recorded post-euthanasia."}, "PC9/GR cells [4]": {"tested_on": "PC9/GR cells", "assay": "Scratch (wound) healing assay", "type": "cell-based, human", "settings": "for relative wound healing area: vehicle control 44.08%", "protocol": "PC9/GR cells were grown to 90% confluence. A uniform wound was created in the monolayer using a sterile 200 µL pipette tip. The initial wound area was imaged immediately (0 h) using phase-contrast microscopy. After 24 h of incubation in complete medium, the wound area was re-imaged. The relative wound closure rate was calculated from the change in wound area using ImageJ software (version 1.53)."}, "p38α": {"target": "p38α (Homo sapiens, UniProt Q16539)", "sequence (Q16539 whole entry)": "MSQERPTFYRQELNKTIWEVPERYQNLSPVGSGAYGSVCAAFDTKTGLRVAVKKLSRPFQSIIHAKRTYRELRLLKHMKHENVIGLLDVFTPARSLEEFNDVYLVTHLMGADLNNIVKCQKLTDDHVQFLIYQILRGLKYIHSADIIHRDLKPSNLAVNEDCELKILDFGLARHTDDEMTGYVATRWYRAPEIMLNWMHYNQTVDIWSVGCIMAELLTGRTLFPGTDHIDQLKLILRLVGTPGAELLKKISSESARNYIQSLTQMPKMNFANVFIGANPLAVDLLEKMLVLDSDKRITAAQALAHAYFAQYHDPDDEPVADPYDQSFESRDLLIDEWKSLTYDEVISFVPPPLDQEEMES", "assay": "ADP-Glo Kinase Assay, p38α MAP kinase inhibition", "type": "biochemical", "settings": "read-out: p38α MAP kinase inhibitory activity IC50", "protocol": "The capacity of brominated tyrosine derivatives to inhibit p38α activity was evaluated using the ADP-Glo Kinase Assay."}, "PC9/GR cells [5]": {"tested_on": "PC9/GR cells", "assay": "Annexin V-FITC/PI apoptosis, flow cytometry", "type": "cell-based, human", "settings": "24 h, vehicle control 5.2%", "protocol": "as §2\nAnnexin V/PI Apoptosis: 4l treated cells were stained with Annexin VFITC/PI (15 min, dark), analyzed by flow cytometry (Q2/Q3: late/early apoptosis)."}, "[6]": {"tested_on": "p38 activation / C/EBPβ expression", "assay": "Western blot of p38, p-p38 and C/EBPβ", "type": "cell-based, human", "settings": "PC9/GR", "description": "(§3) We obtained the gene promoter sequence of TM7SF2 from the NCBI database and utilized online databases JASPAR, UCSC, and hTFtarget to predict potential transcription factors for TM7SF2 (Table S2). […] Some studies indicate that p38 can induce C/EBPβ expression through the activation of p38 MAPK, JNK, or ERK in different experimental environments. We conducted Western blot experiments to detect changes in C/EBPβ expression and p38 protein activation and used ChIP and qPCR to determine whether C/EBPβ can target the TM7SF2 promoter region. […] Furthermore, the strength of this direct binding may be related to intracellular cholesterol levels.\nas §1"}, "[7]": {"tested_on": "C/EBPβ binding to the TM7SF2 promoter region", "assay": "ChIP-qPCR of C/EBPβ binding to the TM7SF2 promoter", "type": "cell-based, human", "settings": "Anti-C/EBPβ group of PC9/GR cells treated with 4l", "description": "as §3\nChIP: 4l treated cells were crosslinked (1% formaldehyde, 20 min), lysed, and sonicated. Chromatin was immunoprecipitated with target antibodies, washed, and eluted. DNA was purified for qPCR.\nqPCR: SYBR Green-based reactions (20 μL) included primers (0.4 μM each) and template DNA."}, "[8]": {"settings": "fourth column = 75 μM by match with b18"}, "[9]": {"settings": "second column = 25 μM by match with b18"}, "[10]": {"settings": "third column = 50 μM by match with b18"}}, "note": "Several values for one entry are separate records, joined by “and”; a condition that tells them apart may be missing. Identical values can stand only once. Entries after “also recorded” stand apart in the source; their conditions may differ."}
{"compound": "O=C(NCCc1cc(Br)c(O)c(Br)c1)Nc1ccc(F)cc1", "note": "[4l, 1-(3,5-dibromo-4-hydroxyphenethyl)-3-(4-fluorophenyl)urea]", "values": [{"measurement": "TM7SF2 protein expression level", "setting": "TM7SF2", "value": "significantly reduced"}, {"measurement": "lipid droplet accumulation", "setting": "PC9/GR cells [1]", "value": "significantly inhibited this lipid accumulation"}, {"measurement": "MTT, PC9/GR, value relative to control (=100), single replicate", "setting": "PC9/GR cells [2]; 25 (μM)", "value": "50.73 and 45.72 and 48.62 and 42.88"}, {"measurement": "MTT, PC9/GR, value relative to control (=100), single replicate", "setting": "PC9/GR cells [2]; 50 (μM)", "value": "40.96 and 39.65 and 38.32 and 38.58"}, {"measurement": "MTT, PC9/GR, value relative to control (=100), single replicate", "setting": "PC9/GR cells [2]; 75 (μM)", "value": "35.79 and 34.89 and 36.33 and 34.75"}, {"measurement": "MTT, PC9/GR, value relative to control (=100), single replicate", "setting": "PC9/GR cells [2]; 100 (μM)", "value": "32.66 and 25.67 and 34.43 and 24.78"}, {"measurement": "IC50", "setting": "PC9/GR cells [2]; Homo sapiens, gefitinib-resistant PC9/GR, MTT, 24-hour treatment, 0–100 μM, read-out: IC50, growth inhibition", "value": 35.2, "unit": "µM"}, {"measurement": "tumor growth inhibition compared to gefitinib-treated group", "setting": "[3]; 200 mg/kg of gefitinib and compound 4l", "value": "stronger inhibitory effect"}, {"measurement": "in vivo growth of PC9/GR xenografts (tumor volume)", "setting": "[3]; 200 mg/kg, daily, 3 weeks, p < 0.05", "value": "effectively inhibited; also recorded: significant suppression; also recorded: significantly inhibited tumor growth"}, {"measurement": "excised tumor weight", "setting": "[3]; end of experiment", "value": "consistent with the volume data"}, {"measurement": "relative wound healing area", "setting": "PC9/GR cells [4]; 25 μM", "value": 25.32, "unit": "%"}, {"measurement": "relative wound healing area", "setting": "PC9/GR cells [4]; 50 μM", "value": 27.45, "unit": "%"}, {"measurement": "relative wound healing area", "setting": "PC9/GR cells [4]; 75 μM", "value": 15.45, "unit": "%"}, {"measurement": "relative wound healing area, mean of replicates", "setting": "PC9/GR cells [4]; [8]", "value": 15.4595}, {"measurement": "relative wound healing area, single replicate", "setting": "PC9/GR cells [4]; [8]", "value": "9.798 and 22.5542 and 10.9511 and 18.5341"}, {"measurement": "relative wound healing area, mean of replicates", "setting": "PC9/GR cells [4]; [9]", "value": 25.3251}, {"measurement": "relative wound healing area, single replicate", "setting": "PC9/GR cells [4]; [9]", "value": "23.8842 and 10.9955 and 36.4639 and 29.9568"}, {"measurement": "relative wound healing area, mean of replicates", "setting": "PC9/GR cells [4]; [10]", "value": 27.4562}, {"measurement": "relative wound healing area, single replicate", "setting": "PC9/GR cells [4]; [10]", "value": "33.9434 and 27.2189 and 28.6416 and 20.021"}, {"measurement": "IC50", "setting": "p38α", "value": "0.0097 ± 0.0014", "unit": "µM"}, {"measurement": "total apoptosis", "setting": "PC9/GR cells [5]; 25 μM", "value": 9.1, "unit": "%"}, {"measurement": "total apoptosis", "setting": "PC9/GR cells [5]; 50 μM", "value": 13.13, "unit": "%"}, {"measurement": "total apoptosis", "setting": "PC9/GR cells [5]; 75 μM", "value": 19.53, "unit": "%"}, {"measurement": "C/EBPβ expression and p38 activation", "setting": "[6]", "value": "reduce C/EBPβ expression by inhibiting p38 activation"}, {"measurement": "C/EBPβ binding to TM7SF2 promoter (specific amplification bands)", "setting": "[7]", "value": "did not show specific amplification bands"}]}
